According to US12356984B2, “Paraquat formulation” (priority 2018, dated 2025):

Test: Compatibility (precipitation) of polyvinylalcohol-acetate copolymer with charged active ingredients
Assay type: physicochemical
Conditions: for Formulability as oil-in-water emulsion (EW): Mowiol 4-88/SPAN 40 and TWEEN 40 system; for Behaviour of polyvinylalcohol when formulated with the charged active ingredient: oil in water emulsion / solution of the active ingredient
Excerpt: One of the challenges faced when formulating pesticidal compositions is the compatibility of active ingredients with additional formulation ingredients, such as surfactants. This is especially a challenge when the active ingredient is highly charged.

CP(=O)(O)CCC(N)C(=O)O.N (stereo not shown) [Ammonium glufosinate]
Quantity at the maximum ratio of Mowiol 4-88 to glufosinate and water at which the copolymer does not precipitate (ammonium glufosinate / Mowiol 4-88 (20% w/w in water) / water 90.15% w/w): 8.49 % w/w

O=C(O)CNCP(=O)([O-])O.[K+] [Potassium glyphosate]
Quantity at the maximum ratio of Mowiol 4-88 to glyphosate and water at which the copolymer does not precipitate (potassium glyphosate / Mowiol 4-88 (20% w/w in water) / water 93.48% w/w): 5.76 % w/w

CP(=O)(O)CCC(N)C(=O)O (stereo not shown) [glufosinate]
Formulability as oil-in-water emulsion (EW): cannot be formulated as an oil-in-water emulsion (EW) at a commercially acceptable concentration | Behaviour of polyvinylalcohol when formulated with the charged active ingredient: precipitates out of solution

O=C(O)CNCP(=O)(O)O [glyphosate]
Formulability as oil-in-water emulsion (EW): cannot be formulated as an EW at a commercially acceptable concentration | Behaviour of polyvinylalcohol when formulated with the charged active ingredient: precipitates out of solution

C[n+]1ccc(-c2cc[n+](C)cc2)cc1 [paraquat]
Behaviour of polyvinylalcohol when formulated with the charged active ingredient: readily dissolves
